Data published in PubChem BioAssay AID248 (DTP/NCI, 2004).
Where “and” joins values, the source holds several entries; their conditions need not be identical. Equal values may be shown once. Toxic doses and inconclusive results are not listed.

System: L1210 leukemia ip in BDF1 mice, survival T/C
Experiment: NCI In Vivo Anticancer Drug Screen. Data for tumor model L1210 Leukemia (intraperitoneal) in B6D2F1 (BDF1) mice
Conditions: endpoint: mean survival time, higher = longer survival
Summary of the method: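 Survival endpoint. Drug-treated group vs vehicle group, expressed as T divided by C. Tumor passaged by transplantation.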

[1] = dose: 100.0 mg/kg/injection, schedule: Q01DX009 (ip), vehicle: saline with Tween-80
[2] = dose: 200.0 mg/kg/injection, schedule: Q01DX001 (ip), vehicle: carboxymethylcellulose (CMC)
[3] = dose: 200.0 mg/kg/injection, schedule: Q01DX009 (ip), vehicle: saline with Tween-80
[4] = dose: 400.0 mg/kg/injection, schedule: Q01DX009 (ip), vehicle: saline with Tween-80
[5] = dose: 100.0 mg/kg/injection, schedule: Q04DX002 (ip), vehicle: Klucel (hydroxypropylcellulose) (HPC)
[6] = dose: 200.0 mg/kg/injection, schedule: Q04DX002 (ip), vehicle: Klucel (hydroxypropylcellulose) (HPC)
[7] = dose: 100.0 mg/kg/injection, schedule: Q01DX009 (ip), vehicle: Klucel (hydroxypropylcellulose) (HPC)
[8] = dose: 100.0 mg/kg/injection, schedule: Q04DX003 (ip), vehicle: Klucel (hydroxypropylcellulose) (HPC)
[9] = dose: 200.0 mg/kg/injection, schedule: Q01DX009 (ip), vehicle: Klucel (hydroxypropylcellulose) (HPC)
[10] = dose: 200.0 mg/kg/injection, schedule: Q04DX003 (ip), vehicle: Klucel (hydroxypropylcellulose) (HPC)
[11] = dose: 400.0 mg/kg/injection, schedule: Q01DX009 (ip), vehicle: Klucel (hydroxypropylcellulose) (HPC)
[12] = dose: 400.0 mg/kg/injection, schedule: Q04DX003 (ip), vehicle: Klucel (hydroxypropylcellulose) (HPC)
[13] = dose: 100.0 mg/kg/injection, schedule: Q01DX009 (ip), vehicle: saline
[14] = dose: 200.0 mg/kg/injection, schedule: Q01DX009 (ip), vehicle: saline
[15] = dose: 100.0 mg/kg/injection, schedule: Q01DX001 (ip), vehicle: saline with Tween-80
[16] = dose: 200.0 mg/kg/injection, schedule: Q01DX001 (ip), vehicle: saline with Tween-80
[17] = dose: 200.0 mg/kg/injection, schedule: Q01DX001 (ip), vehicle: Klucel (hydroxypropylcellulose) (HPC)
[18] = dose: 100.0 mg/kg/injection, schedule: Q01DX001 (ip), vehicle: saline
[19] = dose: 200.0 mg/kg/injection, schedule: Q01DX001 (ip), vehicle: saline
[20] = dose: 400.0 mg/kg/injection, schedule: Q01DX001 (ip), vehicle: saline
[21] = dose: 6.25 mg/kg/injection, schedule: Q01DX009 (ip), vehicle: saline with Tween-80
[22] = dose: 100.0 mg/kg/injection, schedule: Q04DX003 (ip), vehicle: saline with Tween-80
[23] = dose: 200.0 mg/kg/injection, schedule: Q04DX003 (ip), vehicle: saline with Tween-80
[24] = dose: 400.0 mg/kg/injection, schedule: Q04DX003 (ip), vehicle: saline with Tween-80

SMILES: NNC(=O)c1ccc(N)cc1
- T/C (dose: 50.0 mg/kg/injection, schedule: Q01DX001 (ip), vehicle: carboxymethylcellulose (CMC)): 95 % of control
- T/C (dose: 50.0 mg/kg/injection, schedule: Q01DX009 (ip), vehicle: saline with Tween-80): 93 % of control
- T/C (dose: 100.0 mg/kg/injection, schedule: Q01DX001 (ip), vehicle: carboxymethylcellulose (CMC)): 86 % of control
- T/C [1]: 104 % of control
- T/C [2]: 95 % of control
- T/C [3]: 100 % of control
- T/C (dose: 400.0 mg/kg/injection, schedule: Q01DX001 (ip), vehicle: carboxymethylcellulose (CMC)): 103 % of control

SMILES: CCCCNCCC[P+](c1ccccc1)(c1ccccc1)c1ccccc1
- T/C (dose: 25.0 mg/kg/injection, schedule: Q04DX002 (ip), vehicle: saline): 115 % of control
- T/C (dose: 50.0 mg/kg/injection, schedule: Q04DX002 (ip), vehicle: saline): 98 % of control
- T/C (dose: 100.0 mg/kg/injection, schedule: Q04DX002 (ip), vehicle: saline): 105 % of control

SMILES: Cc1cc2cc3cccc[n+]3cc2c2ccccc12
- T/C (dose: 2.0 mg/kg/injection, schedule: Q01DX Z (ip), vehicle: carboxymethylcellulose (CMC)): 101 % of control
- T/C (dose: 4.0 mg/kg/injection, schedule: Q01DX Z (ip), vehicle: carboxymethylcellulose (CMC)): 110 % of control
- T/C (dose: 8.0 mg/kg/injection, schedule: Q01DX Z (ip), vehicle: carboxymethylcellulose (CMC)): 113 % of control
- T/C (dose: 16.0 mg/kg/injection, schedule: Q01DX Z (ip), vehicle: carboxymethylcellulose (CMC)): 113 % of control

SMILES: IC12CC3CC(CC(C3)C1)C2
- T/C [1]: 93 % of control
- T/C [3]: 87 % of control
- T/C [4]: 97 % of control

SMILES: CCOC(=O)c1cnc(SC)nc1Oc1ccccc1
- T/C [1]: 101 % of control
- T/C [3]: 106 % of control
- T/C [4]: 98 % of control

SMILES: CC(=O)OC(C(O)C=O)C(O)C(O)CO (stereo not given) (tested in a mixture with another compound)
- T/C [5]: 107 % of control
- T/C [6]: 88 % of control

SMILES: CS(=O)(=O)c1nsc(S(C)(=O)=O)c1C#N
- T/C (dose: 100.0 mg/kg/injection, schedule: Q04DX003 (ip), vehicle: carboxymethylcellulose (CMC)): 95 % of control
- T/C (dose: 200.0 mg/kg/injection, schedule: Q04DX003 (ip), vehicle: carboxymethylcellulose (CMC)): 97 % of control
- T/C (dose: 400.0 mg/kg/injection, schedule: Q04DX003 (ip), vehicle: carboxymethylcellulose (CMC)): 95 % of control

SMILES: CCOC(=O)CC(=O)c1ccc(OCCOc2ccc(C(C)(C)CC(C)(C)C)cc2)cc1
- T/C [7]: 95 % of control
- T/C [8]: 89 % of control
- T/C [9]: 97 % of control
- T/C [10]: 96 % of control
- T/C [11]: 87 % of control
- T/C [12]: 86 % of control

SMILES: CN(C)c1ccnc(SCc2ccc(Cl)cc2Cl)n1
- T/C (dose: 25.0 mg/kg/injection, schedule: Q01DX Z (ip), vehicle: methylcellulose (MC)): 92 % of control
- T/C (dose: 50.0 mg/kg/injection, schedule: Q01DX Z (ip), vehicle: methylcellulose (MC)): 94 % of control

SMILES: CCOP(=O)(OCC)C(C)OC (stereo not given)
- T/C [13]: 95 % of control
- T/C [14]: 93 % of control
- T/C (dose: 400.0 mg/kg/injection, schedule: Q01DX009 (ip), vehicle: saline): 104 % of control

SMILES: CCOC(=O)NNOC(=O)CC
- T/C [15]: 92 % of control
- T/C [16]: 95 % of control

SMILES: CN(C)c1ccc(C=O)cc1Br
- T/C [7]: 98 % of control
- T/C [8]: 100 % of control
- T/C [9]: 96 % of control
- T/C [10]: 103 % of control
- T/C [11]: 96 % of control
- T/C [12]: 101 % of control

SMILES: c1ccc(N/N=C(\C(=N\Nc2ccccc2)c2ccccc2)c2ccccc2)cc1
- T/C [17]: 87 % of control
- T/C (dose: 400.0 mg/kg/injection, schedule: Q01DX001 (ip), vehicle: Klucel (hydroxypropylcellulose) (HPC)): 86 % of control

SMILES: CC1(C)OC2C(CNS(C)(=O)=O)OC(n3cnc4c(N)ncnc43)C2O1 (stereo not given)
- T/C [18]: 102 % of control
- T/C [19]: 98 % of control
- T/C [20]: 101 % of control

SMILES: Nc1ccccc1CSc1nc2nc[nH]c(=O)c2[nH]1
- T/C [8]: 95 % of control
- T/C [10]: 95 % of control

SMILES: ClCCCNCCCCl
- T/C (dose: 75.0 mg/kg/injection, schedule: Q01DX001 (ip), vehicle: saline): 101 % of control
- T/C (dose: 150.0 mg/kg/injection, schedule: Q01DX001 (ip), vehicle: saline): 97 % of control

SMILES: O=[N+]([O-])c1cc(S(=O)(=O)F)cc(Cl)c1S
- T/C [8]: 98 % of control
- T/C [10]: 102 % of control

SMILES: COc1ccc2nc3cc(Cl)ccc3c(NCCC[N+](C)(C)CCCCCCCCCC[N+](C)(C)CCCNc3c4ccc(Cl)cc4nc4ccc(OC)cc34)c2c1
- T/C (dose: 0.78 mg/kg/injection, schedule: Q01DX009 (ip), vehicle: saline with Tween-80): 102 % of control
- T/C (dose: 1.56 mg/kg/injection, schedule: Q01DX009 (ip), vehicle: saline with Tween-80): 94 % of control and 100 % of control
- T/C (dose: 3.13 mg/kg/injection, schedule: Q01DX009 (ip), vehicle: saline with Tween-80): 100 % of control and 101 % of control
- T/C [21]: 106 % of control

SMILES: CCOC(=O)c1ccccc1N(O)C(=O)Nc1ccc(Cl)cc1
- T/C [22]: 100 % of control
- T/C [23]: 105 % of control
- T/C [24]: 103 % of control

SMILES: O=C(O)CCC(=O)c1ccc(Cl)cc1
- T/C [21]: 88 % of control
- T/C (dose: 12.5 mg/kg/injection, schedule: Q01DX009 (ip), vehicle: saline with Tween-80): 90 % of control
- T/C (dose: 25.0 mg/kg/injection, schedule: Q01DX009 (ip), vehicle: saline with Tween-80): 97 % of control

SMILES: CSc1ncnc2c1ncn2NCC1OC(C)OCC1O (stereo not given)
- T/C (dose: 100.0 mg/kg/injection, schedule: Q01DX001 (ip), vehicle: Klucel (hydroxypropylcellulose) (HPC)): 96 % of control
- T/C [17]: 98 % of control

SMILES: NNC(=O)CCCO
- T/C [22]: 103 % of control
- T/C [23]: 98 % of control
- T/C [24]: 101 % of control

SMILES: Clc1ccc(C2OCCO2)cc1
- T/C [7]: 94 % of control
- T/C [9]: 95 % of control
- T/C [11]: 107 % of control

SMILES: CCCCCCCCN1N=C(C)CCC1=O
- T/C [18]: 101 % of control
- T/C [19]: 90 % of control
- T/C [20]: 101 % of control

SMILES: Cc1c(Cl)cc(Cl)c(N)c1Cl
- T/C [22]: 100 % of control
- T/C [23]: 98 % of control
- T/C [24]: 96 % of control

SMILES: CCOC(=O)C(COS(=O)(=O)c1ccc(C)cc1)(COS(=O)(=O)c1ccc(C)cc1)C(=O)OCC
- T/C [13]: 92 % of control
- T/C [8]: 97 % of control
- T/C [14]: 94 % of control
- T/C [10]: 93 % of control
- T/C [12]: 93 % of control

SMILES: CCCCCOC(=O)CCCc1ccc(N(CCCl)CCCl)cc1
- T/C (dose: 50.0 mg/kg/injection, schedule: Q01DX009 (ip), vehicle: saline): 123 % of control
- T/C [13]: 86 % of control

SMILES: CC1(N(O)C(=O)NC2CCCCC2)CCCCC1
- T/C [15]: 101 % of control
- T/C [16]: 97 % of control

SMILES: CCOC(=O)/C(=C\c1ccccc1)c1nc2ccccc2[nH]1
- T/C [5]: 97 % of control
- T/C [6]: 101 % of control
- T/C (dose: 400.0 mg/kg/injection, schedule: Q04DX002 (ip), vehicle: Klucel (hydroxypropylcellulose) (HPC)): 94 % of control

SMILES: Nc1nc(=S)c2ncn(C3OC(CO)CC3O)c2[nH]1 (stereo not given)
- T/C (dose: 10.0 mg/kg/injection, schedule: Q01DX009 (ip), vehicle: other): 160 % of control
- T/C (dose: 88.8 mg/kg/injection, schedule: Q01DX001 (ip), vehicle: carboxymethylcellulose (CMC)): 162 % of control
- T/C [2]: 189 % of control

SMILES: Cc1ncc(CS(=O)(=O)O)c(N)n1
- T/C [7]: 92 % of control
- T/C [8]: 97 % of control
- T/C [9]: 100 % of control
- T/C [10]: 98 % of control
- T/C [11]: 98 % of control
- T/C [12]: 97 % of control
